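GI50 = concentration required for 50% inhibition of growth. TGI denotes the concentration required for complete inhibition of growth.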
Key:
Test in all cases: growth of human tumour cells (NCI), 384-well format
[1] = test system: SF-268 CNS
[2] = test system: MDA-MB-435 melanoma
[3] = test system: SK-MEL-28 melanoma
[4] = test system: NCI-H322M lung
[5] = test system: KM12 colon
[6] = test system: SF-295 CNS
[7] = test system: BT-549 breast
[8] = test system: TK-10 renal
[9] = test system: NCI-H226 lung
[10] = test system: OVCAR-5 ovarian
[11] = test system: EKVX NSCLC
[12] = test system: HS 578T breast
[13] = test system: OVCAR-3 ovarian
[14] = test system: U251 glioblastoma
[15] = test system: SN12C renal
[16] = test system: CCRF-CEM leukemia
[17] = test system: A549 NSCLC
[18] = test system: HOP-62 NSCLC
[19] = test system: T-47D breast
[20] = test system: RXF 393 renal
[21] = test system: A498 renal
[22] = test system: NCI/ADR-RES ovarian
[23] = test system: HCC-2998 colon
[24] = test system: HT29 colon
[25] = test system: M14 melanoma
[26] = test system: NCI-H460 NSCLC
[27] = test system: HOP-92 NSCLC
[28] = test system: MDA-MB-231 breast
[29] = test system: SF-539 CNS
[30] = test system: NCI-H23 lung
[31] = test system: HL-60(TB) leukemia
[32] = test system: SW-620 colon
[33] = test system: NCI-H522 lung
[34] = test system: UACC-257 melanoma
[35] = test system: OVCAR-4 ovarian
[36] = test system: SK-OV-3 ovarian
[37] = test system: UACC-62 melanoma
[38] = test system: MDA-MB-468 breast
[39] = test system: ACHN renal
[40] = test system: CAKI-1 renal
[41] = test system: COLO 205 colon
[42] = test system: MALME-3M melanoma
[43] = test system: SK-MEL-2 melanoma
[44] = test system: SR leukemia
[45] = test system: SNB-19 CNS
[46] = test system: HCT-15 colon
[47] = test system: PC-3 prostate
[48] = test system: SK-MEL-5 melanoma
[49] = test system: 786-0 renal
[50] = test system: RPMI-8226 leukemia
[51] = test system: SNB-75 CNS
[52] = test system: DU-145 prostate
[53] = test system: MCF7 breast
[54] = test system: OVCAR-8 ovarian
[55] = test system: MOLT-4 leukemia
[56] = test system: IGROV1 ovarian

Question: Which results are given for `Nc1ccn([C@H]2C[C@@H](O)[C@@H](CO)S2)c(=O)n1`?
Answer: GI50 [1]: 54.4 µM; TGI [1]: > 100 µM; GI50 [2]: > 100 µM; TGI [2]: > 100 µM; GI50 [3]: > 100 µM; TGI [3]: > 100 µM; GI50 [4]: > 100 µM; TGI [4]: > 100 µM; GI50 [5]: 9.08 µM; TGI [5]: > 100 µM; GI50 [6]: > 100 µM; TGI [6]: > 100 µM; GI50 [7]: 0.896 µM; TGI [7]: 26.3 µM; GI50 [8]: > 100 µM; TGI [8]: > 100 µM; GI50 [9]: 96.9 µM; TGI [9]: > 100 µM; GI50 [10]: > 100 µM; TGI [10]: > 100 µM; GI50 [11]: > 100 µM; TGI [11]: > 100 µM; GI50 [12]: > 100 µM; TGI [12]: > 100 µM; GI50 [13]: 3.29 µM; TGI [13]: > 100 µM; GI50 [14]: > 100 µM; TGI [14]: > 100 µM; GI50 [15]: 11.6 µM; TGI [15]: > 100 µM; GI50 [16]: 0.0552 µM; TGI [16]: 0.862 µM; GI50 [17]: > 100 µM; TGI [17]: > 100 µM; GI50 [18]: 21.8 µM; TGI [18]: > 100 µM; GI50 [19]: > 100 µM; TGI [19]: > 100 µM; GI50 [20]: 6.98 µM; TGI [20]: > 100 µM; GI50 [21]: > 100 µM; TGI [21]: > 100 µM; GI50 [22]: 1.38 µM; TGI [22]: > 100 µM; GI50 [23]: 4.98 µM; TGI [23]: > 100 µM; GI50 [24]: > 100 µM; TGI [24]: > 100 µM; GI50 [25]: > 100 µM; TGI [25]: > 100 µM; GI50 [26]: 0.204 µM; TGI [26]: > 100 µM; GI50 [27]: 2.35 µM; TGI [27]: > 100 µM; GI50 [28]: 2.95 µM; TGI [28]: > 100 µM; GI50 [29]: > 100 µM; TGI [29]: > 100 µM; GI50 [30]: > 100 µM; TGI [30]: > 100 µM; GI50 [31]: 0.306 µM; TGI [31]: 1.26 µM; GI50 [32]: > 100 µM; TGI [32]: > 100 µM; GI50 [33]: 0.113 µM; TGI [33]: 1.15 µM; GI50 [34]: > 100 µM; TGI [34]: > 100 µM; GI50 [35]: > 100 µM; TGI [35]: > 100 µM; GI50 [36]: > 100 µM; TGI [36]: > 100 µM; GI50 [37]: > 100 µM; TGI [37]: > 100 µM; GI50 [38]: > 100 µM; TGI [38]: > 100 µM; GI50 [39]: > 100 µM; TGI [39]: > 100 µM; GI50 [40]: > 100 µM; TGI [40]: > 100 µM; GI50 [41]: > 100 µM; TGI [41]: > 100 µM; GI50 [42]: > 100 µM; TGI [42]: > 100 µM; GI50 [43]: > 100 µM; TGI [43]: > 100 µM; GI50 [44]: 2.5 µM; TGI [44]: 15.8 µM; GI50 [45]: 4.99 µM; TGI [45]: > 100 µM; GI50 [46]: 1.71 µM; TGI [46]: > 100 µM; GI50 [47]: > 100 µM; TGI [47]: > 100 µM; GI50 [48]: 0.804 µM; TGI [48]: > 100 µM; GI50 [49]: 54.1 µM; TGI [49]: > 100 µM; GI50 [50]: 0.368 µM; TGI [50]: 1.59 µM; GI50 [51]: > 100 µM; TGI [51]: > 100 µM; GI50 [52]: 20.2 µM; TGI [52]: > 100 µM; GI50 [53]: > 100 µM; TGI [53]: > 100 µM; GI50 [54]: 0.783 µM; TGI [54]: 30.8 µM; TGI [55]: 0.0271 µM; GI50 [56]: > 100 µM; TGI [56]: > 100 µM

Reference: PubChem BioAssay (NCI)
